Reference: US9421209B2, “Kinase modulators” (Rhizen Pharmaceuticals SA, priority 2009, dated 2016)
Where two headings read alike, the source gives them in different places.

Tests used:
P110 δ/Pi3K δ = P110 δ/Pi3K δ (Homo sapiens, UniProt O00329); assay: Fluorescent (HTRF) determination of PI3K enzyme activity, δ isoform; type: biochemical; set-up: inhibition: dose or concentration left out as unconfirmed
How it was run: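 IC50 fitted from percent inhibition relative to blank and enzyme-only wells. Human PI3Kδ converts PIP2 to PIP3 after addition of 400 μM ATP solution, 30 min at room temperature. Product read by time-resolved FRET after stop and 6–18 h dark incubation with detection reagents.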

P110β = P110β (Homo sapiens, UniProt P42338); assay: Fluorescent (HTRF) determination of PI3K enzyme activity, β isoform; type: biochemical
Sequence of P110β (P42338 whole entry, canonical isoform): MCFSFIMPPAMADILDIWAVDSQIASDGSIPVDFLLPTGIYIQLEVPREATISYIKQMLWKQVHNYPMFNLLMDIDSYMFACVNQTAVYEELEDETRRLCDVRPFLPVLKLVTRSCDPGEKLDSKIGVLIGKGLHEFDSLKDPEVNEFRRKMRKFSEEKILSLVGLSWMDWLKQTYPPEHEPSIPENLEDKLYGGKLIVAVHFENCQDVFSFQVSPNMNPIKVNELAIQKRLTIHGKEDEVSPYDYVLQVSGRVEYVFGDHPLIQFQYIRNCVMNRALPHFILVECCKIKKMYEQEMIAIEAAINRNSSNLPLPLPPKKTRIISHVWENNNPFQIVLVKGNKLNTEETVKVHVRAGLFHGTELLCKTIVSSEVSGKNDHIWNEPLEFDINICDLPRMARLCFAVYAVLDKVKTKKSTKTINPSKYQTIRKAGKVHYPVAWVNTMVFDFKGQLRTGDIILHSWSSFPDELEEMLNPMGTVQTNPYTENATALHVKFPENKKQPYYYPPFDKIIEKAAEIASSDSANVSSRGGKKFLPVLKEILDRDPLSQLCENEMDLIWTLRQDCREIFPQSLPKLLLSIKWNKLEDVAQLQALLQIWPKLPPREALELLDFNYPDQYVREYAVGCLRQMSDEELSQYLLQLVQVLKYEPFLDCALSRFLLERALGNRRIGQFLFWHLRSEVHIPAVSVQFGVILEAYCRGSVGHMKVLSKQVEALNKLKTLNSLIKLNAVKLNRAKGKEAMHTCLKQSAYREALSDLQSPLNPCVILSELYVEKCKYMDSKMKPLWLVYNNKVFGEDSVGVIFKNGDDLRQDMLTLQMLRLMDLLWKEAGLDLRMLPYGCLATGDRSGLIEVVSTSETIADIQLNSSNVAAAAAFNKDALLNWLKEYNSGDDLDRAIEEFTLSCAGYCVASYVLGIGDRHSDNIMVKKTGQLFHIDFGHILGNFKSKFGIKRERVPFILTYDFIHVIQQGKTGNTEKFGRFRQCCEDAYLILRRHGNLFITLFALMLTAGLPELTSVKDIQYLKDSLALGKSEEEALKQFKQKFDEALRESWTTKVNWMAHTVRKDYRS
Sequence of P110β (P27986 whole entry partner, canonical isoform): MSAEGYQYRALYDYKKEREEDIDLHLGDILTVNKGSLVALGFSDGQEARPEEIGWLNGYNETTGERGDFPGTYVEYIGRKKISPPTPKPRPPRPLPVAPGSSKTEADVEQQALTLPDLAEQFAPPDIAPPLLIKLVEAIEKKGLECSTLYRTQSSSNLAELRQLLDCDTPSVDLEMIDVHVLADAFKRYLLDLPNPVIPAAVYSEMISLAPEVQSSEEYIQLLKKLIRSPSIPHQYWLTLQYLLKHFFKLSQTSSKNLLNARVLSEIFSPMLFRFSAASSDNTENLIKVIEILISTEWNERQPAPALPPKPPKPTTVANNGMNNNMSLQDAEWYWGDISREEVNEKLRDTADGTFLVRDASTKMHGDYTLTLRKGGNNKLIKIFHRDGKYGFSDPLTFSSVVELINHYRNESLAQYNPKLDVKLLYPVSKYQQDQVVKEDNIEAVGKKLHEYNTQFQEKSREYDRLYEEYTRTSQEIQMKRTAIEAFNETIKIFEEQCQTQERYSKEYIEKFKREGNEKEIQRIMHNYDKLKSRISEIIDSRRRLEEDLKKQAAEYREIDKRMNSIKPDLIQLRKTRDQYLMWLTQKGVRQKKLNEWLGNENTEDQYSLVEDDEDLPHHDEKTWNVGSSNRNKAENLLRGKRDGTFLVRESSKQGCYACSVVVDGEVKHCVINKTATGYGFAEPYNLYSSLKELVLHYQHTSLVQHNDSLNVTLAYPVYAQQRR
Description: (§1) Assay 1: Fluorescent determination of PI3Kinase Kinase enzyme activity
(§2) Phosphoinositide 3 kinases (PI3K) belong to a class of lipid kinases that play a critical role in the regulation of several key cellular processes. The PI3K are capable of phosphorylating the 3-hydroxy position of phosphoinositols thereby generating second messengers involved in downstream signalling events. The homogenous time resolved fluorescence (HTRF) assay allows detection of 3,4,5-triphosphate (PIP3) formed as a result of phosphorylation of phosphotidylinositol 4,5-biphosphate (PIP2) by PI3K isoforms such as α, β, γ or δ.
(§3) PI3K isoform activity for α, β, γ or δ was determined using a PI3K human HTRF™ Assay Kit (Millipore, Billerica, Mass.) with modifications. All incubations were carried out at room temperature. Briefly, 0.5 μl of 40× inhibitor (in 100% DMSO) or 100% DMSO were added to each well of a 384-well black plate (Greiner Bio-One, Monroe, N.C.) containing 14.5 μl 1× reaction buffer/PIP2 (10 mM MgCl2, 5 mM DTT, 1.38 μM PIP2) mix with or without enzyme and incubated for 10 min. After the initial incubation, 5 μl/well of 400 μM ATP was added and incubated for an additional 30 minutes. Reaction was terminated by adding 5 μl/well stop solution (Millipore, Billerica, Mass.). Five microliters of detection mix (Millipore, Billerica, Mass.) were then added to each well and was incubated for 6-18 h in the dark. HRTF ratio was measured on a microplate reader (BMG Labtech., Germany) at an excitation wavelength of 337 nm and emission wavelengths of 665 and 620 nm with an integration time of […]. Data were analyzed using Graphpad Prism (Graphpad software; San Diego Calif.) for IC50 determination. Percent inhibition was calculated based on the values for the blank and enzyme controls. The results are provided below in Table 2 & 3.

P110α = P110α (Homo sapiens, UniProt P42336); assay: Fluorescent (HTRF) determination of PI3K enzyme activity, α isoform; type: biochemical
Sequence of P110α (P42336 whole entry, canonical isoform): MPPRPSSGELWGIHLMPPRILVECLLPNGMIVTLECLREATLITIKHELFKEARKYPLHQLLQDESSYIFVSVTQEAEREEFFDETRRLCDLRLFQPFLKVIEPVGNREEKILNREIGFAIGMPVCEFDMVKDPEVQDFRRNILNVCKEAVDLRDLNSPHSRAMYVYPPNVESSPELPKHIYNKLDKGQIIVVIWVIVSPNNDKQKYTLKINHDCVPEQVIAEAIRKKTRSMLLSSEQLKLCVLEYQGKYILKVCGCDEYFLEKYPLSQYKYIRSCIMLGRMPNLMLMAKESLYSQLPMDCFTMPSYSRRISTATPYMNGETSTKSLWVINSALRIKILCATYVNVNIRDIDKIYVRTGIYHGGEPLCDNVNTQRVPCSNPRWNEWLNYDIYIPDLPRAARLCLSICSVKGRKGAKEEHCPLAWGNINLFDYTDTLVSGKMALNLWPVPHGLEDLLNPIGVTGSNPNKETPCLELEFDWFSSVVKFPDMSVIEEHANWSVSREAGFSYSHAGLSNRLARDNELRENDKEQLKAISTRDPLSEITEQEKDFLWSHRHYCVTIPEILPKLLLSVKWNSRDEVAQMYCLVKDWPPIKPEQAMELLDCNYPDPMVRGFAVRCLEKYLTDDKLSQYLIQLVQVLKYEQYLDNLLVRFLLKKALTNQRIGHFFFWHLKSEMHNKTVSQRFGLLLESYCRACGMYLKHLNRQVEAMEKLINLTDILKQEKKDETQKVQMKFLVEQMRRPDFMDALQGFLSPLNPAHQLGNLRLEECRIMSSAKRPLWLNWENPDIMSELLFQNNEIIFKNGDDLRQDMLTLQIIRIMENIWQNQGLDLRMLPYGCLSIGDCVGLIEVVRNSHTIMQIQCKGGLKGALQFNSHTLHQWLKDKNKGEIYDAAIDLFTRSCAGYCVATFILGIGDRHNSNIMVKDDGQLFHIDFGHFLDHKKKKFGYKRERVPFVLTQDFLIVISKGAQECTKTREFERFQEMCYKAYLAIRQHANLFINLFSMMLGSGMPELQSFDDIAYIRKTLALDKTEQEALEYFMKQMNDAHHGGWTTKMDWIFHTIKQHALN
Sequence of P110α (P27986 whole entry partner, canonical isoform): as the sequence (P27986 whole entry partner, canonical isoform) above
Description: as §1, §2, §3

P110γ = P110γ (Homo sapiens, UniProt P48736); assay: Fluorescent (HTRF) determination of PI3K enzyme activity, γ isoform; type: biochemical
Sequence of P110γ (P48736 whole entry, canonical isoform): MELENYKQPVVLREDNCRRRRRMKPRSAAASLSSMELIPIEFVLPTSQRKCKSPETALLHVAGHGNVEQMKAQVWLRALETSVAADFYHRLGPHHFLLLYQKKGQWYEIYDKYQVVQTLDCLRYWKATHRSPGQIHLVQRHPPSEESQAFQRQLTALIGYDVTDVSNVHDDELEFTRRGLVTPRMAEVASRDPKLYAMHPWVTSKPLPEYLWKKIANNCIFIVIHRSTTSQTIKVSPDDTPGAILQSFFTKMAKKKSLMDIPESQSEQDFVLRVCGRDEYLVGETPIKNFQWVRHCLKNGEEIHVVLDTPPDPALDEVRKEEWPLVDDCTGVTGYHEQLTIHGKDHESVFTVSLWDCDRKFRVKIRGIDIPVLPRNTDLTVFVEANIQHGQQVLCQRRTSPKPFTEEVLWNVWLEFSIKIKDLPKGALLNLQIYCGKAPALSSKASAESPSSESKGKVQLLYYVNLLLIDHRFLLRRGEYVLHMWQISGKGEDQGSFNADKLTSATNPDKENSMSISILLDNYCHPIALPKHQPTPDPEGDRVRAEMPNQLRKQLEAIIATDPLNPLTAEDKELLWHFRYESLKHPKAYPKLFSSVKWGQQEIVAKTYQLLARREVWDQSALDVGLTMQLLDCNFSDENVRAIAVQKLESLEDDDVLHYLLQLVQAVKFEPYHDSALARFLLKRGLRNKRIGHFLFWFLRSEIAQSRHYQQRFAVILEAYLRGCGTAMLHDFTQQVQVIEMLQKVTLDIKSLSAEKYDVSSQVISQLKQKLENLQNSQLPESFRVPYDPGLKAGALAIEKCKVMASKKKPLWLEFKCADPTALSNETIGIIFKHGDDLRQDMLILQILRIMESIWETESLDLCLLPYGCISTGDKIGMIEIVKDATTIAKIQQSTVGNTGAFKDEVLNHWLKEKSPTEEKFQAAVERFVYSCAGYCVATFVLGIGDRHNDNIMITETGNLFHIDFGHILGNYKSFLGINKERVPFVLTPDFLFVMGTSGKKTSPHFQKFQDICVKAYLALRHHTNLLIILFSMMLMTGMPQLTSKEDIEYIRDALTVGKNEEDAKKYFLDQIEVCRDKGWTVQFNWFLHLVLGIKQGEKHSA
Description: as §1, §2, §3

[1] = read-out: P110 δ/Pi3K δ IC 50 nM
[2] = read-out: P110 δ/ Pi3K δ IC 50 nM

Sequence of P110 δ/Pi3K δ (O00329 whole entry, canonical isoform): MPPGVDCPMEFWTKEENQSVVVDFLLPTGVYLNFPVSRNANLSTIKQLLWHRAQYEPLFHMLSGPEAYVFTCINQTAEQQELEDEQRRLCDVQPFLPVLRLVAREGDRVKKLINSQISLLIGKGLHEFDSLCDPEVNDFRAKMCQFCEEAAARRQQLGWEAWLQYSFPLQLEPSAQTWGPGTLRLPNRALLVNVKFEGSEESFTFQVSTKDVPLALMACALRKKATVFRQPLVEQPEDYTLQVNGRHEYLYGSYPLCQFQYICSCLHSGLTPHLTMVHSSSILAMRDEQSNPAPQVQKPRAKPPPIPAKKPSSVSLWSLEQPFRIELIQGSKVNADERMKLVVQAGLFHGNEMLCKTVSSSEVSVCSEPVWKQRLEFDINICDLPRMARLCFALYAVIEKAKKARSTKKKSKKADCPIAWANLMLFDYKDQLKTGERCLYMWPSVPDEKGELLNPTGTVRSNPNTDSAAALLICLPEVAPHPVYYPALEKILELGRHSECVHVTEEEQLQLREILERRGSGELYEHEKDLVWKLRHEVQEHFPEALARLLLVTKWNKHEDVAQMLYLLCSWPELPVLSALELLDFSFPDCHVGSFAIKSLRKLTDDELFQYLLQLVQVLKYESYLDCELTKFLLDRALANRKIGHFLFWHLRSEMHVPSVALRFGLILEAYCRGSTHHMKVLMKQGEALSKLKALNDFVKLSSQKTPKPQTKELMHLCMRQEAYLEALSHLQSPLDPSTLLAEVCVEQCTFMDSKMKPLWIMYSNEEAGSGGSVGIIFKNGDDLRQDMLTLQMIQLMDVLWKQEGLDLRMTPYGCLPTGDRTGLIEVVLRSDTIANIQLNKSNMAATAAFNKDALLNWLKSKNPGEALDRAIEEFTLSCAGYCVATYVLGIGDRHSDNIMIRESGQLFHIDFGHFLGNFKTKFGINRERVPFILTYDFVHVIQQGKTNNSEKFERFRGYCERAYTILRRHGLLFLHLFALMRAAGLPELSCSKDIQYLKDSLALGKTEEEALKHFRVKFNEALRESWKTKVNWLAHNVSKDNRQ
Sequence of P110 δ/Pi3K δ (P27986 whole entry partner, canonical isoform): as the sequence (P27986 whole entry partner, canonical isoform) above

SMILES	inhibition at 1 µM (P110 δ/Pi3K δ) [%]	IC50 (P110 δ/Pi3K δ; [1]) [nM]	inhibition at 1 µM (P110β) [%]	melting point [°C]	inhibition at 1 µM (P110α) [%]	inhibition at 1 µM (P110γ) [%]	inhibition (P110 δ/Pi3K δ) [%]	IC50 (P110 δ/Pi3K δ; [2]) [nM]
C[C@H](Nc1ncnc2[nH]cnc12)c1oc2ccc(F)cc2c(=O)c1-c1ccccc1 [Example 57, (S)-2-(1-(9H-purin-6-ylamino)ethyl)-6-fluoro-3-phenyl-4H-chromen-4-one]	50 to 100	< 250	25 to 50	196 to 198	< 25			
C[C@H](Nc1ncnc2[nH]cnc12)c1oc2ccc(F)cc2c(=O)c1-c1cccc(F)c1 [Example 74, (S)-2-(1-(9H-purin-6-ylamino)ethyl)-6-fluoro-3-(3-fluorophenyl)-4H-chromen-4-one]	50 to 100	< 250	25 to 50	203 to 206		25 to 50		
COc1ccc(-c2nn(C(C)c3oc4ccccc4c(=O)c3-c3cccc(F)c3)c3ncnc(N)c23)cc1F (centres unmarked) [Example 84, 2-(1-(4-amino-3-(3-fluoro-4-methoxyphenyl)-1H-pyrazolo[3,4-d]pyrimidin-1-yl)ethyl)-3-(3-fluorophenyl)-4H-chromen-4-one]			< 25	222 to 224	< 25		50 to 100	< 250
CC(c1oc2ccccc2c(=O)c1-c1cccc(F)c1)n1nc(-c2ccc(O)c(F)c2)c2c(N)ncnc21 (centres unmarked) [Example 85, 2-(1-(4-amino-3-(3-fluoro-4-hydroxyphenyl)-1H-pyrazolo[3,4-d]pyrimidin-1-yl)ethyl)-3-(3-fluorophenyl)-4H-chromen-4-one]			25 to 50	244 to 247	25 to 50		50 to 100	
Cc1n[nH]c2cc(-c3nn(C(C)c4oc5ccc(F)cc5c(=O)c4-c4ccccc4)c4ncnc(N)c34)ccc12 (centres unmarked) [Example 105, 2-(1-(4-amino-3-(3-methyl-1H-indazol-6-yl)-1H-pyrazolo[3,4-d]pyrimidin-1-yl)ethyl)-6-fluoro-3-phenyl-4H-chromen-4-one]			50 to 100	253 to 255		50 to 100	50 to 100	< 250
Cc1n[nH]c2ccc(-c3nn(C(C)c4oc5ccccc5c(=O)c4-c4cccc(F)c4)c4ncnc(N)c34)cc12 (centres unmarked) [Example 106, 2-(1-(4-amino-3-(3-methyl-1H-indazol-5-yl)-1H-pyrazolo[3,4-d]pyrimidin-1-yl)ethyl)-3-(3-fluorophenyl)-4H-chromen-4-one]			< 25	254 to 256		25 to 50	< 50	
Cc1n[nH]c2cc(-c3nn(C(C)c4oc5ccc(F)cc5c(=O)c4-c4cccc(F)c4)c4ncnc(N)c34)ccc12 (centres unmarked) [Example 108, 2-(1-(4-amino-3-(3-methyl-1H-indazol-6-yl)-1H-pyrazolo[3,4-d]pyrimidin-1-yl)ethyl)-6-fluoro-3-(3-fluorophenyl)-4H-chromen-4-one]			25 to 50	234 to 236		50 to 100	50 to 100	< 250
CCc1n[nH]c2cc(-c3nn(C(C)c4oc5ccccc5c(=O)c4-c4cccc(F)c4)c4ncnc(N)c34)ccc12 (centres unmarked) [Example 110, 2-(1-(4-amino-3-(3-ethyl-1H-indazol-6-yl)-1H-pyrazolo[3,4-d]pyrimidin-1-yl)ethyl)-3-(3-fluorophenyl)-4H-chromen-4-one]			< 25	270 to 273		50 to 100	50 to 100	
COc1ncc(-c2nn(C(C)c3oc4ccccc4c(=O)c3-c3cccc(F)c3)c3ncnc(N)c23)cn1 (centres unmarked) [Example 112, 2-(1-(4-amino-3-(2-methoxypyrimidin-5-yl)-1H-pyrazolo[3,4-d]pyrimidin-1-yl)ethyl)-3-(3-fluorophenyl)-4H-chromen-4-one]			< 25	224 to 227	< 25		< 50	
Cc1nc2cc(-c3nn(C(C)c4oc5ccccc5c(=O)c4-c4cccc(F)c4)c4ncnc(N)c34)ccc2[nH]1 (centres unmarked) [Example 115, 2-(1-(4-amino-3-(2-methyl-1H-benzo[d]imidazol-5-yl)-1H-pyrazolo[3,4-d]pyrimidin-1-yl)ethyl)-3-(3-fluorophenyl)-4H-chromen-4-one]			< 25	154 to 156	< 25		50 to 100	< 250
CCC(c1oc2ccccc2c(=O)c1-c1cccc(F)c1)n1nc(-c2ccc3c(C)n[nH]c3c2)c2c(N)ncnc21 (centres unmarked) [Example 116, 2-(1-(4-amino-3-(3-methyl-1H-indazol-6-yl)-1H-pyrazolo[3,4-d]pyrimidin-1-yl)propyl)-3-(3-fluorophenyl)-4H-chromen-4-one]			< 25	268 to 270	< 25		50 to 100	
Nc1ncnc2c1ncn2Cc1oc2ccc(F)cc2c(=O)c1-c1ccccc1 [Example 118, 2-((6-amino-9H-purin-9-yl)methyl)-6-fluoro-3-phenyl-4H-chromen-4-one]			25 to 50	207 to 209	< 25		< 50	
Nc1ncnc2c1ncn2Cc1oc2ccc(F)cc2c(=O)c1-c1cccc(F)c1 [Example 119, 2-((6-amino-9H-purin-9-yl)methyl)-6-fluoro-3-(3-fluorophenyl)-4H-chromen-4-one]			< 25	180 to 183	< 25		< 50	
C[C@@H](Nc1ncnc2[nH]cnc12)c1oc2ccc(F)cc2c(=O)c1-c1cccc(F)c1 [Example 124, (R)-2-(1-(9H-purin-6-ylamino)ethyl)-6-fluoro-3-(3-fluorophenyl)-4H-chromen-4-one]			< 25	194 to 197	< 25		< 50	
Nc1ncnc2c1c(-c1cn[nH]c1)nn2Cc1oc2ccc(F)cc2c(=O)c1-c1ccccc1 [Example 125, 2-((4-amino-3-(1H-pyrazol-4-yl)-1H-pyrazolo[3,4-d]pyrimidin-1-yl)methyl)-6-fluoro-3-phenyl-4H-chromen-4-one]			< 25	211 to 214	< 25		< 50	
COc1cc(OC)cc(-c2nn(C(C)c3oc4ccccc4c(=O)c3-c3cccc(F)c3)c3ncnc(N)c23)c1 (centres unmarked) [Example 130, 2-(1-(4-amino-3-(3,5-dimethoxyphenyl)-1H-pyrazolo[3,4-d]pyrimidin-1-yl)ethyl)-3-(3-fluorophenyl)-4H-chromen-4-one]			< 25	224 to 227	< 25		< 50	
COc1c(C)cc(-c2nn(C(C)c3oc4ccccc4c(=O)c3-c3cccc(F)c3)c3ncnc(N)c23)cc1C (centres unmarked) [Example 131, 2-(1-(4-amino-3-(4-methoxy-3,5-dimethylphenyl)-1H-pyrazolo[3,4-d]pyrimidin-1-yl)ethyl)-3-(3-fluorophenyl)-4H-chromen-4-one]			< 25	234 to 236	25 to 50		< 50	
CC(c1oc2ccccc2c(=O)c1-c1cccc(F)c1)n1nc(-c2ccc3c(c2)OCCO3)c2c(N)ncnc21 (centres unmarked) [Example 133, 2-(1-(4-amino-3-(2,3-dihydrobenzo[b][1,4]dioxin-6-yl)-1H-pyrazolo[3,4-d]pyrimidin-1-yl)ethyl)-3-(3-fluorophenyl)-4H-chromen-4-one]			50 to 100	225 to 226	< 25		< 50	
CC(c1oc2ccccc2c(=O)c1-c1cccc(F)c1)n1nc(-c2ccc(Oc3ccccc3)cc2)c2c(N)ncnc21 (centres unmarked) [Example 139, 2-(1-(4-amino-3-(4-phenoxyphenyl)-1H-pyrazolo[3,4-d]pyrimidin-1-yl)ethyl)-3-(3-fluorophenyl)-4H-chromen-4-one]			25 to 50	218 to 220		25 to 50	< 50	
CC(c1oc2ccccc2c(=O)c1-c1cccc(F)c1)n1nc(-c2ccc(OCc3ccccc3)c(Cl)c2)c2c(N)ncnc21 (centres unmarked) [Example 140, 2-(1-(4-amino-3-(4-(benzyloxy)-3-chlorophenyl)-1H-pyrazolo[3,4-d]pyrimidin-1-yl)ethyl)-3-(3-fluorophenyl)-4H-chromen-4-one]			25 to 50	214 to 216		25 to 50	< 50	
